What is called EC50 is the midpoint of the concentration-response curve. One may read the CC50 as the concentration at which the toxic effect on the cells reaches its halfway point. A high value points to better tolerance by the cells. The IC50 is the midpoint of a concentration-inhibition curve.

Data set [1] deals with WT HIV-1 (IIIB). The data set is described as follows: microbe, parasite or virus in culture. Conditions: for EC50: Human immunodeficiency virus 1, IIIB, MT4, read-out: EC50 IIIB; for SI IIIB: ratio of CC50/EC50. Type of data set: cell-based.
For data set [2], the system named is HIV-1 F227L + V106A double-mutant strain. The data set is described as follows: microbe, parasite or virus in culture. Type of data set: cell-based. Conditions: for SI F227L + V106A: CC50/EC50; for EC50: Human immunodeficiency virus 1, MT4, read-out: EC50 F227L + V106A; for RF F227L + V106A: ratio of EC50 (resistant viral strain)/EC50 (wild-type viral strain).
Data set [3] has as its system HIV-1 E138K mutant strain. The data set is described as follows: microbe, parasite or virus in culture. Conditions: for SI E138K: CC50/EC50; for EC50: Human immunodeficiency virus 1, MT4, read-out: EC50 E138K; for RF E138K: ratio of EC50 (resistant viral strain)/EC50 (wild-type viral strain). The class given is cell-based.
The subject of data set [4] is HIV-1 L100I mutant strain. The data set is described as follows: microbe, parasite or virus in culture. The class given is cell-based. Conditions: for SI L100I: CC50/EC50; for EC50: Human immunodeficiency virus 1, MT4, read-out: EC50 L100I; for RF L100I: ratio of EC50 (resistant viral strain)/EC50 (wild-type viral strain).
In data set [5] the test system is HIV-1 K103N mutant strain. The data set is described as follows: microbe, parasite or virus in culture. Type of data set: cell-based. Conditions: for SI K103N: CC50/EC50; for EC50: Human immunodeficiency virus 1, MT4, read-out: EC50 K103N; for RF K103N: ratio of EC50 (resistant viral strain)/EC50 (wild-type viral strain).
The subject of data set [6] is HIV-1 Y188L mutant strain. The data set is described as follows: microbe, parasite or virus in culture. The class given is cell-based. Conditions: for SI Y188L: CC50/EC50; for EC50: Human immunodeficiency virus 1, MT4, read-out: EC50 Y188L; for RF Y188L: ratio of EC50 (resistant viral strain)/EC50 (wild-type viral strain).
A short description of data set [7]: Cytotoxicity in mock-infected MT-4 cell cultures, MTT method. Conditions: human, mock-infected MT-4 cells. (In general: Tetrazolium assays rely on reduction of a dye to a coloured formazan, in cell work by metabolically active cells.)
The test system of data set [8] is HIV-1 RES056 (K103N + Y181C) double-mutant strain. The data set is described as follows: microbe, parasite or virus in culture. The class given is cell-based. Conditions: for SI RES056: CC50/EC50; for EC50: Human immunodeficiency virus 1, MT4, read-out: EC50 RES056; for RF RES056: ratio of EC50 (resistant viral strain)/EC50 (wild-type viral strain).
Data set [9] deals with HIV-1 Y181C mutant strain. The data set is described as follows: microbe, parasite or virus in culture. Type of data set: cell-based. Conditions: for SI Y181C: CC50/EC50; for EC50: Human immunodeficiency virus 1, MT4, read-out: EC50 Y181C; for RF Y181C: ratio of EC50 (resistant viral strain)/EC50 (wild-type viral strain).
For data set [10], the target named is WT HIV-1 RT (Human immunodeficiency virus type 1 group M subtype B, UniProt P03366). The data set is described as follows: Recombinant HIV-1 RT inhibitory assay. The class given is biochemical.
Data set [11] has as its system HIV-2 strain (ROD). The data set is described as follows: Anti-HIV-2. Type of data set: cell-based. Conditions: for EC50: Human immunodeficiency virus 2, MT4, read-out: EC50 ROD; for SI ROD: ratio of CC50/EC50.

For `Cc1cc(-c2ccco2)cc(C)c1Oc1nc(NC2CCN(Cc3ccc(S(N)(=O)=O)cc3)CC2)nc2ccsc12` [Compound 11, 4-((4-((4-(4-(Furan-2-yl)-2,6-dimethylphenoxy)thieno[3,2-d]pyrimidin-2-yl)amino)piperidin-1-yl)methyl)benzenesulfonamide], in data set [1], the EC50 turned out to be 17.7 ± 4.83 nM and the “SI IIIB” value was found to be 762. Besides, in [2], the “SI F227L + V106A” value worked out at 158, the EC50 turned out to be 85.7 ± 9.71 nM and the “RF F227L + V106A” value was found to be 4.8. In addition, in data set [3], the “SI E138K” value turned out to be 271, the EC50 stood at 49.9 ± 0.35 nM and the “RF E138K” value is 2.8. In data set [4], the “SI L100I” value is 151, the EC50 turned out to be 89.3 ± 23 nM and the “RF L100I” value worked out at 5.0. Also, in data set [5], the “SI K103N” value was 651, the EC50 turned out to be 20.7 ± 2.75 nM and the “RF K103N” value is reported as 1.2. In addition, in data set [6], the “SI Y188L” value is on record as 253, the EC50 amounted to 53.4 ± 2.15 nM and the “RF Y188L” value came out at 3.0. In data set [7], this molecule showed a CC50 at 5 days of 13.5 ± 3.94 µM. In data set [8], the “SI RES056” value is given as 24, the EC50 came to 565 ± 22.5 nM and the “RF RES056” value came out at 31.9. Moreover, in data set [9], the “SI Y181C” value came to 213, the EC50 is 63.5 ± 8.75 nM and the “RF Y181C” value was found to be 3.6. Besides, in [10], the IC50 was determined as 243 ± 37 nM. In data set [11], the EC50 came out at 4.15 ± 1.79 µM and the “SI ROD” value came to 3.
As to `Cc1cc(-c2ccco2)cc(C)c1Oc1nc(NC2CCN(Cc3ccc(C(N)=O)cc3)CC2)nc2ccsc12` [Compound 12, 4-((4-((4-(4-(Furan-2-yl)-2,6-dimethylphenoxy)thieno[3,2-d]pyrimidin-2-yl)amino)piperidin-1-yl)methyl)benzamide], in [1], the half-maximal effective concentration (EC50) was 93.3 ± 82.8 nM and the “SI IIIB” value is reported as 310. In [2], the “SI F227L + V106A” value is given as 26, the EC50 stood at 1110 ± 269 nM and the “RF F227L + V106A” value was found to be 11.9. Further, in [3], the “SI E138K” value is recorded as 101, the EC50 was 287 ± 4.98 nM and the “RF E138K” value came out at 3.1. In addition, in data set [4], the “SI L100I” value came to 70, the EC50 is 414 ± 37.9 nM and the “RF L100I” value is listed as 4.4. Moreover, in data set [5], the “SI K103N” value turned out to be 224, the EC50 is 129 ± 5.87 nM and the “RF K103N” value came out at 1.4. In addition, in data set [6], the “SI Y188L” value is recorded as 94, the concentration for a half-maximal effect (EC50) came out at 307 ± 58.2 nM and the “RF Y188L” value is 3.3. The molecule further showed a cytotoxic concentration (CC50) at 5 days in data set [7] of 28.9 ± 15.6 µM. Besides, in data set [8], the “SI RES056” value is reported as 10, the EC50 was 2900 ± 119 nM and the “RF RES056” value was determined as 31.1. Besides, in data set [9], the “SI Y181C” value is reported as 57, the EC50 came out at 511 ± 77.2 nM and the “RF Y181C” value amounted to 5.5. Moreover, in data set [10], the concentration for half-maximal inhibition (IC50) amounted to 901 ± 45 nM. Further, in data set [11], the concentration for a half-maximal effect (EC50) was 25.3 µM and the “SI ROD” value is listed as 1.
For `Cc1cc(-c2ccsc2)cc(C)c1Oc1nc(NC2CCN(Cc3ccc(C(N)=O)cc3)CC2)nc2ccsc12` [Compound 18, 4-((4-((4-(2,6-Dimethyl-4-(thiophen-3-yl)phenoxy)thieno[3,2-d]pyrimidin-2-yl)amino)piperidin-1-yl)methyl)benzamide], in data set [1], the EC50 was found to be 240 ± 94.3 nM and the “SI IIIB” value was 71. Besides, in [2], the “SI F227L + V106A” value was determined as 20, the EC50 stood at 854 ± 186 nM and the “RF F227L + V106A” value stood at 3.6. Besides, in data set [3], the “SI E138K” value is given as 23, the concentration for a half-maximal effect (EC50) was determined as 739 ± 318 nM and the “RF E138K” value was found to be 3.1. Moreover, in data set [4], the “SI L100I” value was determined as 18, the EC50 was 925 ± 286 nM and the “RF L100I” value stood at 3.8. Also, in [5], the “SI K103N” value is reported as 99, the half-maximal effective concentration (EC50) amounted to 171 ± 56.9 nM and the “RF K103N” value is on record as 0.7. In data set [6], the “SI Y188L” value is reported as 27, the concentration giving a half-maximal response (EC50) amounted to 628 ± 49.6 nM and the “RF Y188L” value is given as 2.6. The molecule further showed a CC50 at 5 days in data set [7] of 17 ± 12.9 µM. Also, in data set [8], the “SI RES056” value came to 4, the concentration giving a half-maximal response (EC50) came out at 4520 ± 1450 nM and the “RF RES056” value is listed as 18.8. In [9], the “SI Y181C” value is 23, the 50% effective concentration (EC50) turned out to be 741 ± 154 nM and the “RF Y181C” value was found to be 3.1. Further, in data set [11], the concentration giving a half-maximal response (EC50) was more than 17 µM and the “SI ROD” value is given as less than 1.
As for `O=C1Nc2ccc(Cl)cc2[C@@](C#CC2CC2)(C(F)(F)F)O1` [EFV, efavirenz, reference compound], the EC50 in data set [1] is 5.25 ± 1.98 nM; in data set [2], 268 ± 48.7 nM; in [4], 46.5 ± 9.11 nM; in [5] it was 111 ± 35.4 nM; in data set [6] it was 306 ± 53.9 nM; in data set [9], 6.33 ± 1.06 nM. Further, the EC50 in data set [11] was more than 5.33 µM. For the same molecule, in [7], the CC50 at 5 days was more than 6.33 µM.
As to `Cc1cc(C#N)cc(C)c1Oc1nc(Nc2ccc(C#N)cc2)nc(N)c1Br` [ETR, Etravirine, reference compound], the concentration for a half-maximal effect (EC50) was found to be 5.03 ± 1.68 nM in data set [1]; 14.2 ± 5.14 nM in [2]; 8.07 ± 2.52 nM in data set [3]; 6.35 ± 1.77 nM in [4]; 3.13 ± 0.42 nM in data set [5]; 17.3 ± 5.53 nM in data set [6]. Moreover, the EC50 in data set [8] was 42.5 ± 15.1 nM; in data set [9], 12.2 ± 2.63 nM; in data set [11], more than 4.59 µM. Besides, the “RF F227L + V106A” value in data set [2] turned out to be 2.8. For the same molecule, the “RF E138K” value in [3] came to 1.6. Further, in data set [4], the “RF L100I” value was 1.3. Also, in data set [5], the “RF K103N” value came to 0.6. For the same molecule, the “RF Y188L” value in data set [6] is on record as 3.5. This molecule showed a CC50 at 5 days in data set [7] of more than 4.59 µM. Also, the “RF RES056” value in data set [8] is 8.4. Further, in data set [9], the “RF Y181C” value worked out at 2.4.
As to `Cc1ccnc2c1NC(=O)c1cccnc1N2C1CC1` [NVP, Nevirapine, reference compound], the EC50 in data set [1] was 186 ± 59 nM; in [2] it was more than 9510 nM; in data set [3] it was 115 ± 24.5 nM; in [4] it was 1400 ± 828 nM; in [5], 7820 ± 556 nM; in data set [6] it was more than 9510 nM. Besides, the EC50 in data set [8] was more than 9510 nM; in [9], more than 9510 nM; in data set [11] it was more than 9.51 µM. Further, in data set [2], the “RF F227L + V106A” value was “NA (>51.1)”. In data set [3], the “RF E138K” value is recorded as 0.6. The “RF L100I” value in data set [4] is recorded as 7.5. The “RF K103N” value in data set [5] is 42. Also, the “RF Y188L” value in [6] was “NA (>51)”. Moreover, the CC50 at 5 days in data set [7] is more than 9.51 µM. In data set [8], the “RF RES056” value is reported as “NA (>51.1)”. Besides, the “RF Y181C” value in data set [9] is “NA (>51.1)”.

Values taken from article PMC7280082 (Acta Pharmaceutica Sinica. B, 2019).
